Data on 38 compounds can be found in PubChem BioAssay AID651817 (Broad Institute, 2012).

The structures appear in SMILES notation. Calls of active or inactive are those of the source.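 The calls were made as follows: active = compound whose fitted luminescence drop, meaning cytotoxicity, reaches half effect at most twice its top valid tested dose; inconclusive = flat curve with a moderate drop, or an unreliable fit; inactive = rise instead of drop, flat response, or weaker potency.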

The nature of one assay: NIH/3T3 fibroblast cytotoxicity, dose response, cytotoxicity control for T. cruzi growth inhibitor project, cell-based, cherry-pick samples, set 2 (AID 651817). To be noted: NIH/3T3 viability, ATP luminescence (CellTiter-Glo), 90 h; at 3.8 µM (top of the series). For orientation: ATP-based viability assays read luminescence as a measure of living cells.
In the case of `Cc1ccc(S(=O)(=O)Nc2ccc3c(c2)CC(=O)N([C@H](C)CO)C[C@@H](C)[C@H](CN(C)Cc2ccc(Cl)c(Cl)c2)O3)cc1`, the activity change, negative = cytotoxicity is 33.6% (inactive).

Still in this assay, the particulars now being: NIH/3T3 viability, ATP luminescence (CellTiter-Glo), 90 h; at 4.2 µM (top of the series).
Consider `COc1ccc(CN(C)C[C@H]2Oc3c(NC(=O)Nc4ccc(C(F)(F)F)cc4)cccc3C(=O)N([C@H](C)CO)C[C@H]2C)cc1`, for which the activity change, negative = cytotoxicity is 6.55% (inactive).

The same assay, now with this note: NIH/3T3 viability, ATP luminescence (CellTiter-Glo), 90 h; at 19.5 µM (top of the series).
Turning to `C[C@@H]1CN([C@@H](C)CO)C(=O)c2cccc(NC(=O)c3ccncc3)c2O[C@H]1CN(C)Cc1ccc(C(F)(F)F)cc1`, the activity change, negative = cytotoxicity was 0.884% (inactive). Still for that read-out and setting: for `C[C@@H]1CN([C@@H](C)CO)C(=O)c2cccc(NC(=O)c3nc4ccccc4s3)c2O[C@H]1CN(C)S(=O)(=O)c1ccccc1` the value was -9.49% (inactive); for `Cc1ccc(S(=O)(=O)Nc2ccc3c(c2)CC(=O)N([C@H](C)CO)C[C@H](C)[C@@H](CN(C)S(=O)(=O)c2ccc(Cl)cc2)O3)cc1`, -14.6% (inactive); for `Cc1ccc(S(=O)(=O)N(C)C[C@H]2Oc3ccc(NS(=O)(=O)c4ccccc4)cc3CC(=O)N([C@H](C)CO)C[C@@H]2C)cc1`, -11.8% (inactive). On to `C[C@@H]1CN([C@H](C)CO)C(=O)c2cccc(NC(=O)c3ccncc3)c2O[C@H]1CN(C)CC1CC1`, for which the activity change, negative = cytotoxicity was -26.2% (inactive). As to `Cc1noc(C)c1NC(=O)Nc1cccc2c1O[C@H](CN(C)S(C)(=O)=O)[C@H](C)CN([C@H](C)CO)C2=O`, the activity change, negative = cytotoxicity is -14.2% (inactive). As for `C[C@@H]1CN([C@H](C)CO)C(=O)Cc2cc(NS(=O)(=O)c3ccccc3)ccc2O[C@@H]1CN(C)S(=O)(=O)c1ccc(Cl)cc1`, the activity change, negative = cytotoxicity is -10.7% (inactive). Turning to `C[C@H]1CN([C@@H](C)CO)C(=O)c2cccc(NC(=O)c3nc4ccccc4s3)c2O[C@@H]1CN(C)S(=O)(=O)c1ccc(Cl)cc1`, the activity change, negative = cytotoxicity was -9.43% (inactive). For the compound `C[C@H](CO)N1C[C@H](C)[C@H](CN(C)S(=O)(=O)c2ccc(Cl)cc2)Oc2ccc(NS(=O)(=O)c3ccc(Cl)cc3)cc2CC1=O`, the activity change, negative = cytotoxicity was 7.06% (inactive).

In the case of `C[C@H](CO)N1C[C@H](C)[C@H](CN(C)S(=O)(=O)c2ccc(F)cc2)Oc2c(NC(=O)NC3CCCCC3)cccc2C1=O`, the activity change, negative = cytotoxicity is -54.5% (inactive).

In the case of `C[C@@H]1CN([C@H](C)CO)C(=O)Cc2cc(NS(=O)(=O)c3ccccc3)ccc2O[C@H]1CN(C)S(=O)(=O)c1ccc(Cl)cc1`, the activity change, negative = cytotoxicity is -1.38% (inactive). Still for that read-out and setting: as for `Cc1ccc(S(=O)(=O)N(C)C[C@@H]2Oc3ccc(NS(=O)(=O)c4ccccc4)cc3CC(=O)N([C@@H](C)CO)C[C@H]2C)cc1`, the figure is -8.95% (inactive). As for `C[C@H]1CN([C@@H](C)CO)C(=O)c2cccc(NC(=O)c3ccncc3)c2O[C@H]1CN(C)CC1CCCCC1`, the activity change, negative = cytotoxicity was 36.4% (inactive).

Regarding `C[C@@H]1CN([C@@H](C)CO)C(=O)c2cccc(NC(=O)c3ccncc3)c2O[C@@H]1CN(C)Cc1ccc(Cl)c(Cl)c1`, the activity change, negative = cytotoxicity was 33% (inactive). As to `Cc1ccc(S(=O)(=O)N(C)C[C@H]2Oc3c(NC(=O)c4nc5ccccc5s4)cccc3C(=O)N([C@H](C)CO)C[C@@H]2C)cc1`, the activity change, negative = cytotoxicity is -6.91% (inactive). `COc1ccc(S(=O)(=O)Nc2ccc3c(c2)CC(=O)N([C@H](C)CO)C[C@@H](C)[C@H](CN(C)Cc2ccc4c(c2)OCO4)O3)cc1`: the activity change, negative = cytotoxicity is 4.02% (inactive).

For `C[C@H](CO)N1C[C@H](C)[C@H](CN(C)Cc2ccc3c(c2)OCO3)Oc2c(NC(=O)c3ccncc3)cccc2C1=O`, the activity change, negative = cytotoxicity was -7.03% (inactive). In the case of `C[C@H](CO)N1C[C@H](C)[C@H](CN(C)Cc2ccc3c(c2)OCO3)Oc2c(NC(=O)c3nc4ccccc4s3)cccc2C1=O`, the activity change, negative = cytotoxicity is -1.97% (inactive). The same measure, in the same setting: as for `C[C@@H]1CN([C@@H](C)CO)C(=O)c2cccc(NC(=O)c3nc4ccccc4s3)c2O[C@@H]1CN(C)S(=O)(=O)c1ccccc1`, the figure is -7.14% (inactive). Turning to `Cc1ccc(S(=O)(=O)N(C)C[C@H]2Oc3ccc(NS(=O)(=O)c4ccccc4)cc3CC(=O)N([C@@H](C)CO)C[C@@H]2C)cc1`, the activity change, negative = cytotoxicity is 26% (inactive). On the same count and under the same terms, for `COc1ccc(CN(C)C[C@@H]2Oc3c(NC(=O)c4ccncc4)cccc3C(=O)N([C@H](C)CO)C[C@H]2C)cc1` the value was -20.7% (inactive); for `Cc1ccc(S(=O)(=O)N(C)C[C@H]2Oc3c(NC(=O)c4nc5ccccc5s4)cccc3C(=O)N([C@@H](C)CO)C[C@@H]2C)cc1`, -1.47% (inactive). Turning to `Cc1ccc(S(=O)(=O)N(C)C[C@H]2Oc3ccc(NS(=O)(=O)c4ccc(Cl)cc4)cc3CC(=O)N([C@H](C)CO)C[C@@H]2C)cc1`, the activity change, negative = cytotoxicity was 3.37% (inactive). As to `C[C@H](CO)N1C[C@H](C)[C@@H](CN(C)CC2CCCCC2)Oc2c(NC(=O)c3ccncc3)cccc2C1=O`, the activity change, negative = cytotoxicity is -21.4% (inactive).

On to `C[C@H](CO)N1C[C@H](C)[C@H](CN(C)Cc2ccccc2)Oc2c(NC(=O)c3ccncc3)cccc2C1=O`, for which the activity change, negative = cytotoxicity was 6.02% (inactive). For `C[C@H](CO)N1C[C@H](C)[C@@H](CN(C)Cc2ccc(-c3ccccc3)cc2)Oc2c(NC(=O)c3ccncc3)cccc2C1=O`, the activity change, negative = cytotoxicity was -29.7% (inactive). Regarding `C[C@@H]1CN([C@@H](C)CO)C(=O)Cc2cc(NS(=O)(=O)c3ccc(Cl)cc3)ccc2O[C@@H]1CN(C)S(=O)(=O)c1ccc(Cl)cc1`, the activity change, negative = cytotoxicity was -14.1% (inactive). As for `Cc1ccc(S(=O)(=O)N(C)C[C@@H]2Oc3ccc(NS(=O)(=O)c4ccccc4)cc3CC(=O)N([C@H](C)CO)C[C@@H]2C)cc1`, the activity change, negative = cytotoxicity is 3.11% (inactive). With `C[C@H]1CN([C@@H](C)CO)C(=O)c2cccc(NC(=O)c3ccncc3)c2O[C@@H]1CN(C)Cc1ccc(-c2ccccc2)cc1`, the activity change, negative = cytotoxicity was -14.8% (inactive). In the case of `C[C@H](CO)N1C[C@H](C)[C@H](CN(C)CC2CCCCC2)Oc2c(NC(=O)c3ccncc3)cccc2C1=O`, the activity change, negative = cytotoxicity is 2.09% (inactive).

The same assay, now with this note: NIH/3T3 viability, ATP luminescence (CellTiter-Glo), 90 h; at 21 µM (top of the series).
Take `Cc1ccc(S(=O)(=O)Nc2ccc3c(c2)CC(=O)N([C@H](C)CO)C[C@@H](C)[C@H](CN(C)Cc2ccccc2)O3)cc1`: the activity change, negative = cytotoxicity is 9.12% (inactive). With `Cc1ccc(S(=O)(=O)N(C)C[C@@H]2Oc3ccc(NS(=O)(=O)c4ccc(Cl)cc4)cc3CC(=O)N([C@H](C)CO)C[C@H]2C)cc1`, the activity change, negative = cytotoxicity was -11.6% (inactive).

For the compound `C[C@H](CO)N1C[C@H](C)[C@H](CN(C)S(=O)(=O)c2ccc(Cl)cc2)Oc2ccc(NS(=O)(=O)c3ccccc3)cc2CC1=O`, the activity change, negative = cytotoxicity is -11.3% (inactive). The same measure, in the same setting: for `Cc1ccc(S(=O)(=O)N(C)C[C@H]2Oc3c(NC(=O)c4nc5ccccc5s4)cccc3C(=O)N([C@@H](C)CO)C[C@H]2C)cc1` the value was -14.2% (inactive); for `C[C@@H]1CN([C@@H](C)CO)C(=O)c2cccc(NC(=O)c3ccncc3)c2O[C@@H]1CN(C)Cc1ccc2c(c1)OCO2`, -12.5% (inactive).

With `C[C@@H]1CN([C@H](C)CO)C(=O)c2cccc(NC(=O)c3ccncc3)c2O[C@H]1CN(C)Cc1ccc(C(F)(F)F)cc1`, the activity change, negative = cytotoxicity is -18.8% (inactive).
